Source: ChEMBL document CHEMBL4387741, “Optimization of novel reversible Bruton's tyrosine kinase inhibitors identified using Tethering-fragment-based screens” (Bioorg Med Chem, 2019)

How the values were obtained:
[1] = molecular target: Serine/threonine-protein kinase ULK1 (Homo sapiens) (UniProt O75385); test: Inhibition of wild-type human partial length ULK1 (M1 to T309 residues) expressed in mammalian expression system at 1 uM by Kinomescan method relative to control
[2] = molecular target: Casein kinase I isoform gamma-1 (Homo sapiens) (UniProt Q9HCP0); test: Inhibition of wild-type human partial length CSNK1G1 (T15 to S353 residues) expressed in bacterial expression system at 1 uM by Kinomescan method relative to control
Sequence of Casein kinase I isoform gamma-1 (Homo sapiens) (Q9HCP0 whole entry, looked up, the tested form may be a part, canonical isoform): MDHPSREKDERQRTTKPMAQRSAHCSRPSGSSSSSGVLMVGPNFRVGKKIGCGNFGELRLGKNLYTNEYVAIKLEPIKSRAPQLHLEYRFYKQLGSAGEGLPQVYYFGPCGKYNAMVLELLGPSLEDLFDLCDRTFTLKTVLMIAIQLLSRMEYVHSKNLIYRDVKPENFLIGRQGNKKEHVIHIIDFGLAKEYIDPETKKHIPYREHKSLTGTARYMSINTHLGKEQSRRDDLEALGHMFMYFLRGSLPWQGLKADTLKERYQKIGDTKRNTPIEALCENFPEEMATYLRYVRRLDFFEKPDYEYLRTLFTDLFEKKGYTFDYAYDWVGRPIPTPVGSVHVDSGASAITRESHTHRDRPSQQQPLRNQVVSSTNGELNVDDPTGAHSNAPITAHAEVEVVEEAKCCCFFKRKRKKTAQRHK

[3] = tested on: Epidermal growth factor receptor (Homo sapiens), P00533 [T790M]; test: Inhibition of human partial length EGFR T790M mutant (R669 to G1022 residues) expressed in mammalian expression system at 1 uM by Kinomescan method relative to control
[4] = molecular target: Ribosomal protein S6 kinase alpha-2 (Homo sapiens) (UniProt Q15349); test: Inhibition of wild-type human partial length C-terminal RSK3 kinase domain 2 (V403 to K700 residues) expressed in bacterial expression system at 1 uM by Kinomescan method relative to control
[5] = molecular target: AP2-associated protein kinase 1 (Homo sapiens) (UniProt Q2M2I8); test: Inhibition of human wild-type AAK1 (G25 to L333 residues) expressed in bacterial expression system at 1 uM by Kinomescan method relative to control
[6] = molecular target: Macrophage colony-stimulating factor 1 receptor (Homo sapiens) (UniProt P07333); test: Inhibition of wild-type human partial length autoinhibited CSF1R (Y538 to S939 residues) expressed in mammalian expression system at 1 uM by Kinomescan method relative to control
Sequence of Macrophage colony-stimulating factor 1 receptor (Homo sapiens) (P07333 whole entry, the tested form may be a part): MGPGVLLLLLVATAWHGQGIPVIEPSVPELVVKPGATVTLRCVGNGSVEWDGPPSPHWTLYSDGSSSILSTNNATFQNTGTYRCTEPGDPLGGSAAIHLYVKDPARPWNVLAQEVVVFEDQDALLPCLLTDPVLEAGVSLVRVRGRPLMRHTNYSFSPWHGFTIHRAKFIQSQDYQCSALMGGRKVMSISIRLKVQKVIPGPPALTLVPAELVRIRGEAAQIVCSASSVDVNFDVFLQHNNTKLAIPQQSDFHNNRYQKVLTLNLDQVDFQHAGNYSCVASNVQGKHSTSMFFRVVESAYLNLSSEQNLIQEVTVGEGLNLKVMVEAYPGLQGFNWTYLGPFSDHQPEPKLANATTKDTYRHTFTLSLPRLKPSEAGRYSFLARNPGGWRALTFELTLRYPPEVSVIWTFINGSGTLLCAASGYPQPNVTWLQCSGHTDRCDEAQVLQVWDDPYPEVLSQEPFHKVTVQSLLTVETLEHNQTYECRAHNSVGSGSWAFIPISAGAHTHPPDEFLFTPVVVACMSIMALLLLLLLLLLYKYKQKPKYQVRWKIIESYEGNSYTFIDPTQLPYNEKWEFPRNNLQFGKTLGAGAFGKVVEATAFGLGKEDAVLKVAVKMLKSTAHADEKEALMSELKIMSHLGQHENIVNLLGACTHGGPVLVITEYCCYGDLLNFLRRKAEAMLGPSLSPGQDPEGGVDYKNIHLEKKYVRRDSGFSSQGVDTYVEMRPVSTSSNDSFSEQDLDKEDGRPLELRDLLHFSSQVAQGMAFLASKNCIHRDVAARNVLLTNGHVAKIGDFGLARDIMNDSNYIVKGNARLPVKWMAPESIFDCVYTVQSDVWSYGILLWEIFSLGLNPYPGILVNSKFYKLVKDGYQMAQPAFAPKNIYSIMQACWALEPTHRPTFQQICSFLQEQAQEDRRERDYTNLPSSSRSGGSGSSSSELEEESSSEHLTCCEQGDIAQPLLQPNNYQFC

[7] = molecular target: Calcium/calmodulin-dependent protein kinase type 1B (Homo sapiens) (UniProt Q6P2M8); test: Inhibition of wild-type human partial length CAMK1B (W9 to A311 residues) expressed in mammalian expression system at 1 uM by Kinomescan method relative to control
Sequence of Calcium/calmodulin-dependent protein kinase type 1B (Homo sapiens) (Q6P2M8 whole entry, the tested form may be a part): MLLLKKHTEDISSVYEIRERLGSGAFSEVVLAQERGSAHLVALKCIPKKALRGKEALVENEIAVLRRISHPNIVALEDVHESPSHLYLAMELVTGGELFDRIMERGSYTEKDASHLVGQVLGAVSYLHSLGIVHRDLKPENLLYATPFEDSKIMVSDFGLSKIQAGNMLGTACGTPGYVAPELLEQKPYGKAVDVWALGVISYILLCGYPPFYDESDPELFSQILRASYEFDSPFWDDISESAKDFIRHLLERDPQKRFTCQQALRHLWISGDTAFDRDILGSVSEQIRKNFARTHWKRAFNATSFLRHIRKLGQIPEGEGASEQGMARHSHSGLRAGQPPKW

[8] = molecular target: Phosphatidylinositol 5-phosphate 4-kinase type-2 gamma (Homo sapiens) (UniProt Q8TBX8); test: Inhibition of wild-type human partial length PIP5K2C (M1 to A421 residues) expressed in mammalian expression system at 1 uM by Kinomescan method relative to control
[9] = tested on: Phosphatidylinositol 4,5-bisphosphate 3-kinase catalytic subunit alpha isoform (Homo sapiens), P42336 [Q546K]; test: Inhibition of human partial length PIK3CA Q546K mutant (R108 to N1068 residues) expressed in mammalian expression system at 1 uM by Kinomescan method relative to control
Sequence of Phosphatidylinositol 4,5-bisphosphate 3-kinase catalytic subunit alpha isoform (Homo sapiens), P42336 [Q546K] (P42336 whole entry Q546K, the tested form may be a part, canonical isoform): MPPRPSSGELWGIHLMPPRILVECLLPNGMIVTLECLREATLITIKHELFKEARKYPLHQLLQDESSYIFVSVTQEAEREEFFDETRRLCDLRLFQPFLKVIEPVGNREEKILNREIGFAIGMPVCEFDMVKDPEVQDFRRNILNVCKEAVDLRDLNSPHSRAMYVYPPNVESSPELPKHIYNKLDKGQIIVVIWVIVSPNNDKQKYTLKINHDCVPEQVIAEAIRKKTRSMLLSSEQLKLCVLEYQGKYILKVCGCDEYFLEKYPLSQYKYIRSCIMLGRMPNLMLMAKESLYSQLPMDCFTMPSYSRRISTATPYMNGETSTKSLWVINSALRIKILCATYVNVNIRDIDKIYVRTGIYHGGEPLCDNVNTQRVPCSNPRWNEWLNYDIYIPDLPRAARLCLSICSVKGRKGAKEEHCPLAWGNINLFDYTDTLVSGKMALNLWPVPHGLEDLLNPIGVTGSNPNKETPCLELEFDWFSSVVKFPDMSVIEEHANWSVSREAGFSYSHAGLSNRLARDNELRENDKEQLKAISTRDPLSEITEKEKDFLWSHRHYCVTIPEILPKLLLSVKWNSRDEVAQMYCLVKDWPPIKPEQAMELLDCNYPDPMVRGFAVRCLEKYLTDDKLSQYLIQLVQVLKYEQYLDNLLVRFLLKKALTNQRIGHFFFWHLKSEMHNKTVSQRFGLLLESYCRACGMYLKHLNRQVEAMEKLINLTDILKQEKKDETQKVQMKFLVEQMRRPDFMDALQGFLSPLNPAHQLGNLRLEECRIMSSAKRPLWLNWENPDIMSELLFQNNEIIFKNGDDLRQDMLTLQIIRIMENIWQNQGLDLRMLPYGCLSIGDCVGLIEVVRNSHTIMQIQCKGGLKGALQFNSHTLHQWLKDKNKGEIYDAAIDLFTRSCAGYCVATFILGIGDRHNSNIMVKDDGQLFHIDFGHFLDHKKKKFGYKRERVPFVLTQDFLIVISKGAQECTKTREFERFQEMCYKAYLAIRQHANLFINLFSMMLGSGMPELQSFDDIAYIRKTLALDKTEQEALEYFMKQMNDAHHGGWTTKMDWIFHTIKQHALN

[10] = tested on: Tyrosine-protein kinase ABL1 (Homo sapiens), P00519 [Q252H]; test: Inhibition of human phosphorylated ABL1 Q252H mutant expressed in mammalian expression system at 1 uM by Kinomescan method relative to control
[11] = molecular target: Death-associated protein kinase 2 (Homo sapiens) (UniProt Q9UIK4); test: Inhibition of wild-type human full length DAPK2 (M1 to S370 residues) expressed in bacterial expression system at 1 uM by Kinomescan method relative to control
[12] = tested on: Phosphatidylinositol 4,5-bisphosphate 3-kinase catalytic subunit alpha isoform (Homo sapiens), P42336 [E545K]; test: Inhibition of human partial length PIK3CA E545K mutant (R108 to N1068 residues) expressed in mammalian expression system at 1 uM by Kinomescan method relative to control
[13] = molecular target: Non-receptor tyrosine-protein kinase TYK2 (Homo sapiens) (UniProt P29597); test: Inhibition of wild-type human partial length TYK2 JH2 pseudokinase domain (G556 to D888 residues) expressed in mammalian expression system at 10 uM by Kinomescan method relative to control
[14] = molecular target: Casein kinase I isoform gamma-3 (Homo sapiens) (UniProt Q9Y6M4); test: Inhibition of wild-type human full length CSNK1G3 (M1 to K447 residues) expressed in bacterial expression system at 10 uM by Kinomescan method relative to control
[15] = molecular target: Tyrosine-protein kinase receptor UFO (Homo sapiens) (UniProt P30530); test: Inhibition of wild-type human partial length AXL (R497 to Y821 residues) expressed in bacterial expression system at 10 uM by Kinomescan method relative to control
[16] = molecular target: Dual specificity protein kinase CLK3 (Homo sapiens) (UniProt P49761); test: Inhibition of wild-type human full length CLK3 (M1 to R490 residues) expressed in bacterial expression system at 10 uM by Kinomescan method relative to control
[17] = molecular target: Homeodomain-interacting protein kinase 2 (Homo sapiens) (UniProt Q9H2X6); test: Inhibition of wild-type human partial length HIPK2 (M153 to S564 residues) expressed in mammalian expression system at 10 uM by Kinomescan method relative to control
[18] = molecular target: Mitogen-activated protein kinase 14 (Homo sapiens) (UniProt Q16539); test: Inhibition of wild-type human full length p38-alpha (M1 to S360 residues) expressed in bacterial expression system at 10 uM by Kinomescan method relative to control
[19] = molecular target: Focal adhesion kinase 1 (Homo sapiens) (UniProt Q05397); test: Inhibition of wild-type human partial length FAK (D402 to R696 residues) expressed in bacterial expression system at 10 uM by Kinomescan method relative to control
[20] = tested on: Epidermal growth factor receptor (Homo sapiens), P00533 [L858R,T790M]; test: Inhibition of human partial length EGFR L858R/T790M double mutant (R669 to V1011 residues) expressed in mammalian expression system at 10 uM by Kinomescan method relative to control
Sequence of Epidermal growth factor receptor (Homo sapiens), P00533 [L858R,T790M] (P00533 whole entry T790M/L858R, looked up, the tested form may be a part, canonical isoform): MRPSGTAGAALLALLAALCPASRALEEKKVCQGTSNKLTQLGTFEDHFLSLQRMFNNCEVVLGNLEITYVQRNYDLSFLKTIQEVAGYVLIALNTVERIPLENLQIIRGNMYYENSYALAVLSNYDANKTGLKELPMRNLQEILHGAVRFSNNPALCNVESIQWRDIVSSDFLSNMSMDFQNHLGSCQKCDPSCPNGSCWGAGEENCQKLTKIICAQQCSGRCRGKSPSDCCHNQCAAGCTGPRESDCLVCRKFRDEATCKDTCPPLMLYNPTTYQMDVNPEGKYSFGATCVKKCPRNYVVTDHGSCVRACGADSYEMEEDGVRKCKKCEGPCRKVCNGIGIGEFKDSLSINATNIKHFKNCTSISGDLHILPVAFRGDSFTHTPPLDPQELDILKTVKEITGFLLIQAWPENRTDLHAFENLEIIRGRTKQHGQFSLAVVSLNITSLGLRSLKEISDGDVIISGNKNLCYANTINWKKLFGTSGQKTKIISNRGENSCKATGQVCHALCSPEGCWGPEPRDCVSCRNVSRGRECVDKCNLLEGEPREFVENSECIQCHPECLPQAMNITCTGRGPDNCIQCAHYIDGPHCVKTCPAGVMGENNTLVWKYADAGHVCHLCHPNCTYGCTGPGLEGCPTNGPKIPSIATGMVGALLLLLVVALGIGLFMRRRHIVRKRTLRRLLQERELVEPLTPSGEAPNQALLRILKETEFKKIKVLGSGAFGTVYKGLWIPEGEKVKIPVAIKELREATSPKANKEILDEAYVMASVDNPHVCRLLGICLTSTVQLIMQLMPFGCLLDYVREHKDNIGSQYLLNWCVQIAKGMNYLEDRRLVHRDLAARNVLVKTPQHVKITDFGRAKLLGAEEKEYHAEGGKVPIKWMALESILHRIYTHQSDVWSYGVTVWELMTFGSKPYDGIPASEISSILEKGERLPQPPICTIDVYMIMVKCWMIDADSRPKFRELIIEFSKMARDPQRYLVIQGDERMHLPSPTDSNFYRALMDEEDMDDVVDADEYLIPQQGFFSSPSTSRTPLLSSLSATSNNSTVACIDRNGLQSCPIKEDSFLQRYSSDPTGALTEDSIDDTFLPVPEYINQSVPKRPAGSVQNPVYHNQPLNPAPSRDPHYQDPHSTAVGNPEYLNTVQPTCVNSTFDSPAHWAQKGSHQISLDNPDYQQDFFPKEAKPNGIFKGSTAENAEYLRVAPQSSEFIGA

[21] = tested on: Phosphatidylinositol 4,5-bisphosphate 3-kinase catalytic subunit alpha isoform (Homo sapiens), P42336 [Q546K]; test: Inhibition of human partial length PIK3CA Q546K mutant (R108 to N1068 residues) expressed in mammalian expression system at 10 uM by Kinomescan method relative to control
[22] = molecular target: Ephrin type-A receptor 5 (Homo sapiens) (UniProt P54756); test: Inhibition of wild-type human partial length EPHA5 (T627 to V930 residues) expressed in bacterial expression system at 10 uM by Kinomescan method relative to control
[23] = molecular target: Leukocyte tyrosine kinase receptor (Homo sapiens) (UniProt P29376); test: Inhibition of wild-type human partial length LTK (P422 to S744 residues) expressed in bacterial expression system at 10 uM by Kinomescan method relative to control
[24] = molecular target: Cytoplasmic tyrosine-protein kinase BMX (Homo sapiens) (UniProt P51813); test: Inhibition of wild-type human full length BMX (M1 to H675 residues) expressed in bacterial expression system at 10 uM by Kinomescan method relative to control
[25] = molecular target: Tyrosine-protein kinase Fyn (Homo sapiens) (UniProt P06241); test: Inhibition of wild-type human partial length FYN (T243 to L534 residues) expressed in bacterial expression system at 10 uM by Kinomescan method relative to control
[26] = tested on: Mast/stem cell growth factor receptor Kit (Homo sapiens), P10721 [D816H]; test: Inhibition of human partial length KIT D816H mutant (I571 to D952 residues) expressed in mammalian expression system at 10 uM by Kinomescan method relative to control
Sequence of Mast/stem cell growth factor receptor Kit (Homo sapiens), P10721 [D816H] (P10721 whole entry D816H, the tested form may be a part): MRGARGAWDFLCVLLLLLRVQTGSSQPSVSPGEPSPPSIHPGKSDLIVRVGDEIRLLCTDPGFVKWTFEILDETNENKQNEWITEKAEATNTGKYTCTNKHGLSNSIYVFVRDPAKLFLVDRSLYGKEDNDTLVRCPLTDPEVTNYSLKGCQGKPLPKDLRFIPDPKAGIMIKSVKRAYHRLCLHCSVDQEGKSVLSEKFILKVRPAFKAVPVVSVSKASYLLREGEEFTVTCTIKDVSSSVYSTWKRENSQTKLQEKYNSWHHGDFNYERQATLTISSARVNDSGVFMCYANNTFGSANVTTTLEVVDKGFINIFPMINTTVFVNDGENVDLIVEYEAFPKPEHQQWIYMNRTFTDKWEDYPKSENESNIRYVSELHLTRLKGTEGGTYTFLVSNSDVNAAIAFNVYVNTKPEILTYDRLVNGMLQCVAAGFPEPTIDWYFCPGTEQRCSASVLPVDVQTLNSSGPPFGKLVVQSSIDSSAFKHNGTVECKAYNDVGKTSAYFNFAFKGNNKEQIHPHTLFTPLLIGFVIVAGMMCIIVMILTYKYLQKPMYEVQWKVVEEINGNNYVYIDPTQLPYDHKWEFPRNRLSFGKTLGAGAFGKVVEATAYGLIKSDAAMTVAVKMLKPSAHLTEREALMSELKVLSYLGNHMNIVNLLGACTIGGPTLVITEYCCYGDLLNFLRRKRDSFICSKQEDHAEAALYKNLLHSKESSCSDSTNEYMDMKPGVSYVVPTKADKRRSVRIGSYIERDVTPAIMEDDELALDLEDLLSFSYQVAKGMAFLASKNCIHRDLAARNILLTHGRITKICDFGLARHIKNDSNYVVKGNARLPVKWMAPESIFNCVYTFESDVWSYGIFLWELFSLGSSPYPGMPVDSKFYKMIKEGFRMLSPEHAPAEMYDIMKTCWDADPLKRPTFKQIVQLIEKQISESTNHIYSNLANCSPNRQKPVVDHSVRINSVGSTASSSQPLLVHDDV

[27] = molecular target: Ribosomal protein S6 kinase alpha-6 (Homo sapiens) (UniProt Q9UK32); test: Inhibition of wild-type human partial length N-terminal RSK4 kinase domain 1 (M1 to E397 residues) expressed in mammalian expression system at 10 uM by Kinomescan method relative to control

O=C(Nc1cccc([C@@H]2CN(c3ncnc4[nH]ccc34)CCN2CCO)c1)Nc1c(F)cccc1N1CCCC1
inhibition [1]: 60%
inhibition [2]: 100%
inhibition [3]: 96%
inhibition [4]: 97%
inhibition [5]: 75%
inhibition [6]: 83%
inhibition [7]: 98%
inhibition [8]: 83%
inhibition [9]: 89%
inhibition [10]: 95%
inhibition [11]: 6.1%
inhibition [12]: 56%

O=C(Nc1cccc([C@H]2CCCN(c3ncnc4[nH]ccc34)C2)c1)Nc1ccccc1N1CCCC1
inhibition [13]: 50%
inhibition [14]: 99%
inhibition [15]: 16%
inhibition [16]: 87%
inhibition [17]: 64%
inhibition [18]: 100%
inhibition [19]: 90%
inhibition [20]: 83%
inhibition [21]: 81%
inhibition [22]: 97%
inhibition [23]: 100%
inhibition [24]: 43%
inhibition [25]: 67%
inhibition [26]: 4.2%
inhibition [27]: 34%
